Source: US20050255493A1, “Molecular targeting of the IGF-1 receptor” (priority 2002, published 2005)

Tests used:
[1] = tested on: DU145 cells; test: Etoposide-induced apoptosis in DU145 cells (caspase 3/7 activation, annexin V staining); type: cell-based, human; settings: 200 nM, annexin staining and caspase 3/7 activation
Protocol: FIG. 13 illustrates the effect of siRNA R4 on apoptosis in prostate cancer cells. DU145 cells were transfected with 200 nM R4 or scrambled control, and after 48 hr were treated with etoposide or vehicle without drug. After overnight incubation at 37° C. the incidence of apoptosis was measured by caspase 3/7 activation assay (Promega; left panel), or by flow cytometry after staining with annexin V and propodium iodide (right panel).

[2] = tested on: A549 cells; test: Anchorage-independent growth of A549 cells (polyHema plates, MTS assay); type: cell-based, human; settings: 200 nM duplex, MTS assay 10 days later
Protocol: FIG. 12 illustrates growth of A549 cells under anchorage-independent conditions, in 24-well plates coated with polyHema to prevent adherence. Cells were transfected with 200 nM duplex, re-seeded the next day into polyHema-coated plates at 500 cells/well. MTS assay performed 10 days later. UT=untransfected. **p<0.01 for comparison of R4 with Scr.

[3] = tested on: UC101 human ovarian cancer cells; test: Tumorigenicity of UC101 ovarian cancer cells transfected with siRNA (xenografts); type: in vivo, female athymic (nu/nu mice); settings: nu/nu mice
Protocol: UC101 ovarian cancer cells were transfected with 200 nM siRNA, mixed with irradiated NIH-3T3 cells and inoculated into the flanks of female athymic (nu/nu mice).
Tumorigenicity testing was conducted using UC101 human ovarian cancer cells transfected with 200 nM siRNA. After 48 hr the cells were inoculated into the flanks of female athymic (nu/nu mice), using 5×10^6 tumour cells mixed with 5×10^6 irradiated NIH-3T3 cells per mouse. Tumours were measured and volumes calculated as described (Macaulay et al., Oncogene 20: 2029-40, 2001). All procedures were performed in accordance with the Home Office Scientific Procedures Act 1986, and with the approval of the Animal Ethics Committee of Cancer Research UK.

[4] = tested on: IGF1R mRNA; test: Oligonucleotide scanning array hybridisation with labelled transcript; type: binding, human; settings: scanning array, peak 4 region (FIG. 11B)
Protocol: Scanning arrays complementary to the region of the IGF1R mRNA from position 537-685 were prepared using the standard techniques described in Southern E. M. et al., Nucleic Acids Res., 1994, 22(8): 1368-1373; and Sohail, M. and Southern, E. M. “Using oligonucleotide scanning arrays to find effective antisense reagents”, Methods in Molecular Biology, vol. 170: DNA Arrays: Methods and Protocols, Ed J. B. Rampal, Humana Press Inc., Totowa, N.J.
The scanning arrays comprise sets of oligonucleotides of various lengths. A series of oligonucleotides, complementary to the target mRNA, is made by sequential coupling of nucleotides to a solid surface. The DNA synthesis reagents are applied to a confined area on the surface of the solid support using a mask. The mask is shifted along the surface after each round of coupling, resulting in a series of oligonucleotides each complementary to a region of the target sequence.
• 2. Remove 1 μL for quantitation (see below). • 3. Remove unincorporated label by Sephadex® G25 column chromatography (see Note 11). • 4. Save 1 μL of the purified transcript for quantitation (see below). • 5. Check the integrity of the transcript by denaturing polyacrylamide gel electrophoresis (10). • 6. Add 10 μL of the scintillation fluid to the samples saved in Steps 2 and 4. • 7. Mix by vortexing and count the samples in a scintillation counter for 1 min. • 8. Calculate the percent incorporation: [formula] • 9. Calculate the amount of RNA made: [formula] Hybridisation to Arrays Made on Polypropylene • 1. Place the array in the hybridisation tube, coiling it in a spiral. • 2. Dilute the radiolabelled transcript in an appropriate volume (10-20 mL depending upon the size of the array and the hybridisation tube) of hybridisation buffer. The mix should cover the array along the length of the tube. • 3. Place items 1 and 2 in the oven at desired temperature for 30 min. Also put approximately 100 mL of the hybridisation buffer in the oven: this is to be used to wash the array at the end of hybridisation. • 4. Pour the hybridisation mix into the tube containing the array and hybridise for 3-4 h. • 5. Remove the hybridisation mix. Briefly wash the array with the hybridisation buffer from Step 3, air dry, cover with cling film and expose to a storage phosphor screen for 16-20 h (see Note 12). • 6. Scan the screen on PhosphorImager or STORM and analyse the image using xvseq (see below). Hybridisation to Arrays Made on Glass • 1. Clean the non-array glass plate with acetone and ethanol to ensure it is grease-free and siliconise it by treatment with dimethyl dichlorosilane solution and place it in lidded box. Also place moist paper towel in the box. • 2. Dilute the radiolabelled transcript in an appropriate volume of the hybridisation buffer (for example, for an array of 250 mm×50 mm use 500-750 μL). • 3. Place items 1 and 2 in an incubator at desired temprature for 30 min. Also put approximately 100 mL of the hybridisation buffer in the oven: this is to be used to wash the array at the end of hybridisation. • 4. Using a micropipette, pipette the hybridisation mix in a line evenly along the length of the non-array glass plate, avoiding formation of air bubbles. • 5. Starting at one end, carefully place the scanning array (face down) on top of the hybridisation mix. The mix will spread out and form a thin film between the two plates. Incubate for 3-4 h. • 6. Separate the plates from each other and wash the array plate with hybridisation buffer to remove unbound mix. Drain the plate, air dry, cover with cling film and expose to a storage phosphor screen for 16-20 h. • 7. Scan the screen on PhosphorImager or STORM and analyse the image using xvseq (see below). Alternative Hybridisation Protocol for Glass or Polypropylene • 1. Assemble with clips the array plate (or polypropylene array pasted with PhotoMount™ on a glass plate) and the non-array plate, using rubber tubing as spacers on two sides. • 2. […]

[5] = UC101 cells transfected with 200 nM siRNA

With “R4: RNAi duplex CAAUGAGUACAACUACCGCTT / TTGUUACUCAUGUUGAUGGCG, SEQ ID NO:30 (CAAUGAGUACAACUACCGCNN; second strand not cited, chemistry not fully specified)” as the substance, how does the “Etoposide-induced apoptosis” value [1] read?
The value was “enhanced etoposide-induced apoptosis”.

And the “Anchorage-independent growth” value [2]?
Its value is “significant inhibition of anchorage-independent growth”.

And the “Duration of tumour growth delay (remaining two animals)” value [3, 5]?
The value was ~18 days.

What about the “Time remaining tumour-free (two of 4 mice)” value [3, 5] of the same substance?
Its value is > 60 days.

And the “Animals in which tumour formation was abolished” value ([3]; single transfection, 200 nM siRNA, UC101 cells)?
Its value is 2/4.

And the “Difference in hybridization intensity between the 19mer ASOs equivalent to R4 and R5” value [4]?
Its value is ~6.5 fold.
